We go through 16 compounds from US5463074A, “Imidazolyl or imidazoylalkyl substituted with a four or five membered nitrogen containing heterocyclic ring” (Schering Corporation, priority 1994, dated 1995).

The target of one assay is T1, H3 receptor (Cavia porcellus, UniProt Q9JI35).
T1 construct: The source of the H3 receptors in this experiment was guinea pig brain; from tissue; host or cells: guinea pig brain membranes
T1 sequence (Q9JI35 whole entry): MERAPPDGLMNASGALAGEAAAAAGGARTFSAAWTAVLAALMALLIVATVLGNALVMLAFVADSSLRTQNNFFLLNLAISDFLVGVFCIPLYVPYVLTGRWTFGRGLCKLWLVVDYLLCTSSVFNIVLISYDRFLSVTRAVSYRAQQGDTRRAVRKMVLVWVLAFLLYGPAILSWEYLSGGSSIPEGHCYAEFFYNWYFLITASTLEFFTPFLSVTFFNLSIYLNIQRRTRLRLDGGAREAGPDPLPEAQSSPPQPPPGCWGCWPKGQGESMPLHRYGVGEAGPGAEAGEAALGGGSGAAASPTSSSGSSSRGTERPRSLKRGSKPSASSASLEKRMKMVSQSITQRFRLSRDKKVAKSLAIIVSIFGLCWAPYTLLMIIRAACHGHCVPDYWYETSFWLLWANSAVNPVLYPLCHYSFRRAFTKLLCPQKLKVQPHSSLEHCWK
The assay is described as follows: H3 Receptor Binding Assay.
Settings: not given
Also noted: species or system guinea pig. How it is done:
The source of the H3 receptors in this experiment was guinea pig brain. The animals used weighted 400-600 g. The tissue was homogenized using a Polytron in a solution of 50 mM Tris, pH 7.5. The final concentration of tissue in the homogenization buffer was 10% w/v. The homogeneates were centrifuged at 1000×g for 10 min. in order to remove clumps of tissue and debris. The resulting supernatants were then centrifuged at 50,000×g for 20 min. in order to sediment the membranes, which were next washed 3 times in homogenization buffer (50,000×g for 20 min. each). The membranes were frozen and stored at -70° C. until needed.
All compounds to be tested were dissolved in DMSO and then diluted into the binding buffer (50 mM Tris, pH 7.5) such that the final concentration was 2 μg/mL with 0.1% DMSO. Membranes were then added (400 μg of protein) to the reaction tubes. The reaction was started by the addition of 3 nM [^3 H]R-α-methylhistamine (8.8 CVmmol) or [^3 H]-N-methylhistamine (80 Cvmmol) and incubated at 30° for 30 min.
In turn, `CCCCC[C@@H]1CNC[C@@H]1c1c[nH]cn1` (relative stereo) had a Ki of 77 nM.

The same assay, now with this note: at a concentration of 2 μg/mL; guinea pig brain membranes; read-out: % inhibition (of specific binding of radioactive ligand).
As for `CC1(C)CNCC1c1c[nH]cn1` (stereo not shown), the inhibition at 2 µg/mL was determined as 68%.

Staying with this assay, now noted: guinea pig brain membranes; [3H]R-α-methylhistamine or [3H]-N-methylhistamine, 30°, 30 min; read-out: H3 Binding Ki.
In the case of `C[C@@H]1NC[C@H]1c1c[nH]cn1` (relative stereo), the inhibition constant Ki amounted to 7 nM.
On the same count and under the same terms, the value for `C[C@@H]1C[C@@H](c2c[nH]cn2)CN1` (relative stereo) was 76 nM.
The same measure, in the same setting: the value for `CN1CCC(Cc2c[nH]cn2)C1` (stereo not shown) was 3 nM; that for `CC1(c2c[nH]cn2)CCNC1` (stereo not shown) was 170 nM; that for `CCCCC[C@@H]1CNC[C@H]1c1c[nH]cn1` (relative stereo) was 450 nM.
Consider `C[C@@H]1CNC[C@H]1c1cnc[nH]1` (relative stereo), for which the Ki is 8 nM.
Still for that read-out and setting: the value for `CC1(C)NCCC1c1c[nH]cn1` (stereo not shown) was 66 nM; that for `c1nc(C2CCNC2)c[nH]1` (stereo not shown) was 3 nM.
On the same count and under the same terms, the figure for `c1ccc(CC[C@@H]2NCC[C@@H]2c2c[nH]cn2)cc1` (relative stereo) is 600 nM; for `C[C@@H]1NCC[C@H]1c1c[nH]cn1` (relative stereo) it is 6 nM; for `c1nc(CC2CCCN2)c[nH]1` (stereo not shown) it is 110 nM.
Turning to `CC[C@@H]1CNC[C@H]1c1c[nH]cn1` (relative stereo), the inhibition constant (Ki) is 150 nM.

Staying with this assay, now noted: read-out: % inhibition (of specific binding of radioactive ligand).
Consider `c1ccc(C[C@@H]2NCC[C@H]2c2c[nH]cn2)cc1` (relative stereo), for which the inhibition at 2 µg/mL stood at 7%.

For the next assay, the system named is H3 receptors.
Test: not given
The note with it: H3 receptors in rat brain; cited from earlier work.
Regarding `NCCc1c[nH]cn1` [histamine], the “maximum inhibition of release” value is recorded as “approximately 60%”.

As a reminder, the Ki is the equilibrium dissociation constant of an inhibitor or competing ligand from its target. The term inhibition denotes the drop in the measured response relative to a control, in per cent.
